Source: ChEMBL document CHEMBL3885861, “Open TG-GATES”

Organism: Rattus norvegicus
Test: Open TG-GATES - Regimen: Daily Repeat
Type: toxicity, organism-based, Sprague-Dawley
Set-up: regimen Daily Repeat, gender Male, age 6 weeks
Conditions: in vivo, po, route gavage; for APTT / Bas / Eos / Fbg / Hb / Ht / Lym / MCH / MCHC / MCV / Mono / Neu / PT / Plat / RBC / Ret / WBC: tissue Blood; for KIDNEY_L / KIDNEY_R / KIDNEY_TOTAL: tissue Kidney; for LIVER: tissue Liver; for A/G / ALP / ALT / AST / BUN / CRE / Ca / Cl / DBIL / GLC / IP / K / LDH / Na / PL / RALB / TBIL / TC / TG / TP / gamma-GTP: tissue Plasma
[1] = 200 mg/kg, 72 h, dose level Middle, time 3 day
[2] = 200 mg/kg, […], dose level Middle, time 7 day
[3] = 200 mg/kg, […], dose level Middle, time 14 day
[4] = 200 mg/kg, […], dose level Middle, time 28 day
[5] = 600 mg/kg, 72 h, dose level High, time 3 day
[6] = 600 mg/kg, […], dose level High, time 7 day
[7] = 600 mg/kg, […], dose level High, time 14 day
[8] = 600 mg/kg, […], dose level High, time 28 day

CCOC(=O)[C@H](CCc1ccccc1)N[C@@H](C)C(=O)N1CCC[C@H]1C(=O)O
TERMINAL_BW [1]: 240.7 g
APTT [1]: 15.8 s
Bas [1]: 0%
Eos [1]: 1%
Fbg [1]: 231 mg/dL
Hb [1]: 13.2 g/dL
Ht [1]: 40.1%
Lym [1]: 78%
MCH [1]: 21.9 pg
MCHC [1]: 32.9%
MCV [1]: 66.6 fL
Mono [1]: 8.4%
Neu [1]: 12.6%
PT [1]: 11.8 s
Plat [1]: 114.3 x10_4/uL
RBC [1]: 601.8 x10_4/ul
Ret [1]: 5.9%
WBC [1]: 85.6 x10_2/uL
KIDNEY_L [1]: 1.1 g
KIDNEY_R [1]: 1.1 g
KIDNEY_TOTAL [1]: 2.2 g
LIVER [1]: 11.8 g
A/G [1]: 2
ALP [1]: 912.6 IU/L
ALT [1]: 35 IU/L
AST [1]: 65.2 IU/L
BUN [1]: 19.4 mg/dL
CRE [1]: 0.5 mg/dL
Ca [1]: 11 mg/dL
Cl [1]: 104.4 meq/L
DBIL [1]: 0.03 mg/dL
GLC [1]: 193 mg/dL
IP [1]: 8.7 mg/dL
K [1]: 4.3 meq/L
LDH [1]: 98.2 IU/L
Na [1]: 140.8 meq/L
PL [1]: 146 mg/dL
RALB [1]: 4 g/dL
TBIL [1]: 0.4 mg/dL
TC [1]: 81.4 mg/dL
TG [1]: 81.2 mg/dL
TP [1]: 6 g/dL
gamma-GTP [1]: 1.4 IU/L
TERMINAL_BW [2]: 259.9 g
TERMINAL_BW [3]: 304.7 g
TERMINAL_BW [4]: 336 g
APTT [2]: 16.8 s
Bas [2]: 0%
Eos [2]: 1%
Fbg [2]: 228 mg/dL
Hb [2]: 13.3 g/dL
Ht [2]: 40.2%
Lym [2]: 81.8%
MCH [2]: 20.4 pg
MCHC [2]: 33.1%
MCV [2]: 61.7 fL
Mono [2]: 6.2%
Neu [2]: 10.8%
PT [2]: 11.6 s
Plat [2]: 123.3 x10_4/uL
RBC [2]: 651.6 x10_4/ul
Ret [2]: 4.1%
WBC [2]: 108.2 x10_2/uL
APTT [3]: 16.2 s
Bas [3]: 0%
Eos [3]: 1.2%
Fbg [3]: 242.2 mg/dL
Hb [3]: 13.4 g/dL
Ht [3]: 40.5%
Lym [3]: 81%
MCH [3]: 20.2 pg
MCHC [3]: 33.2%
MCV [3]: 60.8 fL
Mono [3]: 6%
Neu [3]: 12%
PT [3]: 11.5 s
Plat [3]: 113 x10_4/uL
RBC [3]: 666.8 x10_4/ul
Ret [3]: 3.6%
WBC [3]: 116.4 x10_2/uL
APTT [4]: 15.5 s
Bas [4]: 0%
Eos [4]: 1%
Fbg [4]: 240.2 mg/dL
Hb [4]: 14.3 g/dL
Ht [4]: 42.9%
Lym [4]: 87.4%
MCH [4]: 19 pg
MCHC [4]: 33.3%
MCV [4]: 57.1 fL
Mono [4]: 4.2%
Neu [4]: 7.4%
PT [4]: 11.8 s
Plat [4]: 101.7 x10_4/uL
RBC [4]: 752.2 x10_4/ul
Ret [4]: 3.4%
WBC [4]: 172.8 x10_2/uL
KIDNEY_L [2]: 1.2 g
KIDNEY_R [2]: 1.2 g
KIDNEY_TOTAL [2]: 2.4 g
KIDNEY_L [3]: 1.3 g
KIDNEY_R [3]: 1.3 g
KIDNEY_TOTAL [3]: 2.6 g
KIDNEY_L [4]: 1.4 g
KIDNEY_R [4]: 1.4 g
KIDNEY_TOTAL [4]: 2.9 g
LIVER [2]: 11.6 g
LIVER [3]: 12.7 g
LIVER [4]: 12.8 g
A/G [2]: 2.2
ALP [2]: 881.8 IU/L
ALT [2]: 27.4 IU/L
AST [2]: 56.8 IU/L
BUN [2]: 24 mg/dL
CRE [2]: 0.5 mg/dL
Ca [2]: 10.3 mg/dL
Cl [2]: 104.4 meq/L
DBIL [2]: 0.002 mg/dL
GLC [2]: 207.4 mg/dL
IP [2]: 8.4 mg/dL
K [2]: 4.7 meq/L
LDH [2]: 88.8 IU/L
Na [2]: 136.6 meq/L
PL [2]: 141.6 mg/dL
RALB [2]: 3.9 g/dL
TBIL [2]: 0.4 mg/dL
TC [2]: 74.6 mg/dL
TG [2]: 81.8 mg/dL
TP [2]: 5.7 g/dL
gamma-GTP [2]: 1.4 IU/L
A/G [3]: 1.9
ALP [3]: 760.4 IU/L
ALT [3]: 28.4 IU/L
AST [3]: 57.2 IU/L
BUN [3]: 27.6 mg/dL
CRE [3]: 0.6 mg/dL
Ca [3]: 10.8 mg/dL
Cl [3]: 105.6 meq/L
DBIL [3]: 0.008 mg/dL
GLC [3]: 194.8 mg/dL
IP [3]: 8.3 mg/dL
K [3]: 4.6 meq/L
LDH [3]: 86.2 IU/L
Na [3]: 138 meq/L
PL [3]: 154.8 mg/dL
RALB [3]: 3.9 g/dL
TBIL [3]: 0.3 mg/dL
TC [3]: 83 mg/dL
TG [3]: 83.2 mg/dL
TP [3]: 6.1 g/dL
gamma-GTP [3]: 1.2 IU/L
A/G [4]: 1.8
ALP [4]: 617.8 IU/L
ALT [4]: 24 IU/L
AST [4]: 55.4 IU/L
BUN [4]: 45.2 mg/dL
CRE [4]: 0.7 mg/dL
Ca [4]: 10.2 mg/dL
Cl [4]: 105.8 meq/L
DBIL [4]: 0.078 mg/dL
GLC [4]: 206 mg/dL
IP [4]: 7.5 mg/dL
K [4]: 4.8 meq/L
LDH [4]: 62.4 IU/L
Na [4]: 137.6 meq/L
PL [4]: 145.6 mg/dL
RALB [4]: 3.8 g/dL
TBIL [4]: 0.3 mg/dL
TC [4]: 77 mg/dL
TG [4]: 87.2 mg/dL
TP [4]: 5.9 g/dL
gamma-GTP [4]: 2.2 IU/L
TERMINAL_BW [5]: 244.3 g
APTT [5]: 16 s
Bas [5]: 0%
Eos [5]: 1.4%
Fbg [5]: 232.8 mg/dL
Hb [5]: 13 g/dL
Ht [5]: 38.8%
Lym [5]: 79.6%
MCH [5]: 20.9 pg
MCHC [5]: 33.4%
MCV [5]: 62.5 fL
Mono [5]: 6.6%
Neu [5]: 12.2%
PT [5]: 11.6 s
Plat [5]: 116.5 x10_4/uL
RBC [5]: 620.6 x10_4/ul
Ret [5]: 4.9%
WBC [5]: 116.9 x10_2/uL
KIDNEY_L [5]: 1 g
KIDNEY_R [5]: 1.1 g
KIDNEY_TOTAL [5]: 2.1 g
LIVER [5]: 11.4 g
A/G [5]: 1.8
ALP [5]: 892.2 IU/L
ALT [5]: 33.2 IU/L
AST [5]: 58.2 IU/L
BUN [5]: 25.2 mg/dL
CRE [5]: 0.5 mg/dL
Ca [5]: 11 mg/dL
Cl [5]: 104 meq/L
DBIL [5]: 0.02 mg/dL
GLC [5]: 193.2 mg/dL
IP [5]: 8.9 mg/dL
K [5]: 4.9 meq/L
LDH [5]: 83.6 IU/L
Na [5]: 138.8 meq/L
PL [5]: 154.2 mg/dL
RALB [5]: 3.8 g/dL
TBIL [5]: 0.3 mg/dL
TC [5]: 85.8 mg/dL
TG [5]: 93.6 mg/dL
TP [5]: 5.9 g/dL
gamma-GTP [5]: 1.4 IU/L
TERMINAL_BW [6]: 266.1 g
TERMINAL_BW [7]: 298.8 g
TERMINAL_BW [8]: 358.5 g
APTT [6]: 15.8 s
Bas [6]: 0%
Eos [6]: 1.2%
Fbg [6]: 228.2 mg/dL
Hb [6]: 12.5 g/dL
Ht [6]: 37.8%
Lym [6]: 78.2%
MCH [6]: 21.1 pg
MCHC [6]: 33.2%
MCV [6]: 63.8 fL
Mono [6]: 6.4%
Neu [6]: 14.8%
PT [6]: 11.7 s
Plat [6]: 110 x10_4/uL
RBC [6]: 593.8 x10_4/ul
Ret [6]: 3.8%
WBC [6]: 113.9 x10_2/uL
APTT [7]: 16.5 s
Bas [7]: 0%
Eos [7]: 1.2%
Fbg [7]: 232.2 mg/dL
Hb [7]: 12.6 g/dL
Ht [7]: 37.8%
Lym [7]: 80%
MCH [7]: 20.7 pg
MCHC [7]: 33.4%
MCV [7]: 61.9 fL
Mono [7]: 4.2%
Neu [7]: 14.4%
PT [7]: 11.7 s
Plat [7]: 102.3 x10_4/uL
RBC [7]: 611.2 x10_4/ul
Ret [7]: 3.3%
WBC [7]: 122.6 x10_2/uL
APTT [8]: 16 s
Bas [8]: 0%
Eos [8]: 1%
Fbg [8]: 249.8 mg/dL
Hb [8]: 13.9 g/dL
Ht [8]: 41.5%
Lym [8]: 84.2%
MCH [8]: 19.4 pg
MCHC [8]: 33.5%
MCV [8]: 57.9 fL
Mono [8]: 4.8%
Neu [8]: 9.8%
PT [8]: 11.6 s
Plat [8]: 114.3 x10_4/uL
RBC [8]: 717.4 x10_4/ul
Ret [8]: 5%
WBC [8]: 148.4 x10_2/uL
KIDNEY_L [6]: 1.2 g
KIDNEY_R [6]: 1.3 g
KIDNEY_TOTAL [6]: 2.5 g
KIDNEY_L [7]: 1.3 g
KIDNEY_R [7]: 1.3 g
KIDNEY_TOTAL [7]: 2.7 g
KIDNEY_L [8]: 1.7 g
KIDNEY_R [8]: 1.7 g
KIDNEY_TOTAL [8]: 3.4 g
LIVER [6]: 12.4 g
LIVER [7]: 13 g
LIVER [8]: 14.8 g
A/G [6]: 1.9
ALP [6]: 795.8 IU/L
ALT [6]: 26.8 IU/L
AST [6]: 59 IU/L
BUN [6]: 40.4 mg/dL
CRE [6]: 0.6 mg/dL
Ca [6]: 10.6 mg/dL
Cl [6]: 105.2 meq/L
DBIL [6]: 0.002 mg/dL
GLC [6]: 199.6 mg/dL
IP [6]: 8 mg/dL
K [6]: 5.1 meq/L
LDH [6]: 97 IU/L
Na [6]: 137.4 meq/L
PL [6]: 144 mg/dL
RALB [6]: 3.7 g/dL
TBIL [6]: 0.4 mg/dL
TC [6]: 80.6 mg/dL
TG [6]: 85.2 mg/dL
TP [6]: 5.7 g/dL
gamma-GTP [6]: 1.2 IU/L
A/G [7]: 1.8
ALP [7]: 654.8 IU/L
ALT [7]: 26.8 IU/L
AST [7]: 58.6 IU/L
BUN [7]: 38.2 mg/dL
CRE [7]: 0.6 mg/dL
Ca [7]: 10.9 mg/dL
Cl [7]: 104.4 meq/L
DBIL [7]: 0.006 mg/dL
GLC [7]: 191 mg/dL
IP [7]: 8.9 mg/dL
K [7]: 4.8 meq/L
LDH [7]: 90.4 IU/L
Na [7]: 137 meq/L
PL [7]: 149 mg/dL
RALB [7]: 3.9 g/dL
TBIL [7]: 0.3 mg/dL
TC [7]: 78.8 mg/dL
TG [7]: 81.2 mg/dL
TP [7]: 6.1 g/dL
gamma-GTP [7]: 1.2 IU/L
A/G [8]: 1.7
ALP [8]: 553.2 IU/L
ALT [8]: 23.8 IU/L
AST [8]: 65.2 IU/L
BUN [8]: 44 mg/dL
CRE [8]: 0.7 mg/dL
Ca [8]: 10.9 mg/dL
Cl [8]: 105.2 meq/L
DBIL [8]: 0.062 mg/dL
GLC [8]: 195.4 mg/dL
IP [8]: 7.4 mg/dL
K [8]: 4.9 meq/L
LDH [8]: 100.2 IU/L
Na [8]: 137.6 meq/L
PL [8]: 150.2 mg/dL
RALB [8]: 3.9 g/dL
TBIL [8]: 0.3 mg/dL
TC [8]: 75.4 mg/dL
TG [8]: 97.8 mg/dL
TP [8]: 6.1 g/dL
gamma-GTP [8]: 1.8 IU/L
